What all share (assay type): in vivo
Assay [1] deals with Puccinia recondita f. sp. tritici. Put plainly: Test F: preventive spray on wheat seedlings, wheat leaf rust, visual disease rating. The following applies: 200 ppm test suspension, Puccinia recondita f. sp. tritici inoculated the day after spraying; for pest or weed control at 200 ppm: 168 h. The method, then:
General protocol for preparing test suspensions for Tests A-G: the test compounds were first dissolved in acetone in an amount equal to 3% of the final volume and then suspended at the desired concentration (in ppm) in acetone and purified water (50/50 mix by volume) containing 250 ppm of the surfactant Trem® 014 (polyhydric alcohol esters). The resulting test suspensions were then used in Tests A-G. Each test was conducted in triplicate, and the results were averaged. Spraying a 200 ppm test suspension to the point of run-off on the test plants was the equivalent of a rate of 800 g/ha. Unless otherwise indicated, the rating values indicate a 200 ppm test suspension was used. (An asterisk “*” next to the rating value indicates a 40 ppm test suspension was used.) The test suspension was sprayed to the point of run-off on wheat seedlings. The following day the seedlings were inoculated with a spore suspension of Puccinia recondita f. sp. tritici (the causal agent of wheat leaf rust) and incubated in a saturated atmosphere at 20° C. for 24 h, and then moved to a growth chamber at 20° C. for 6 days, after which time visual disease ratings were made. Results for Tests A-G are given in Table A. In the Table, a rating of 100 indicates 100% disease control and a rating of 0 indicates no disease control (relative to the controls). A hyphen (-) indicates no test results.

For another assay, the system named is Septoria nodorum. Put plainly: Test C: preventive spray on wheat seedlings, Septoria glume blotch, visual disease rating. As to conditions: 200 ppm test suspension, Septoria nodorum inoculated the day after spraying; for pest or weed control at 200 ppm: Parastagonospora nodorum, 264 h. The method, then: General protocol for preparing test suspensions for Tests A-G: the test compounds were first dissolved in acetone in an amount equal to 3% of the final volume and then suspended at the desired concentration (in ppm) in acetone and purified water (50/50 mix by volume) containing 250 ppm of the surfactant Trem® 014 (polyhydric alcohol esters). The resulting test suspensions were then used in Tests A-G. Each test was conducted in triplicate, and the results were averaged. Spraying a 200 ppm test suspension to the point of run-off on the test plants was the equivalent of a rate of 800 g/ha. Unless otherwise indicated, the rating values indicate a 200 ppm test suspension was used. (An asterisk “*” next to the rating value indicates a 40 ppm test suspension was used.) The test suspension was sprayed to the point of run-off on wheat seedlings. The following day the seedlings were inoculated with a spore suspension of Septoria nodorum (the causal agent of Septoria glume blotch) and incubated in a saturated atmosphere at 24° C. for 48 h, and then moved to a growth chamber at 20° C. for 9 days, after which time visual disease ratings were made. Results for Tests A-G are given in Table A. In the Table, a rating of 100 indicates 100% disease control and a rating of 0 indicates no disease control (relative to the controls). A hyphen (-) indicates no test results.

For another assay, the system named is Septoria tritici. Put plainly: Test D: preventive spray on wheat seedlings, wheat leaf blotch, visual disease rating. The following applies: 200 ppm test suspension, Septoria tritici inoculated the day after spraying; for pest or weed control at 200 ppm: Zymoseptoria tritici, 504 h. The method, then: General protocol for preparing test suspensions for Tests A-G: the test compounds were first dissolved in acetone in an amount equal to 3% of the final volume and then suspended at the desired concentration (in ppm) in acetone and purified water (50/50 mix by volume) containing 250 ppm of the surfactant Trem® 014 (polyhydric alcohol esters). The resulting test suspensions were then used in Tests A-G. Each test was conducted in triplicate, and the results were averaged. Spraying a 200 ppm test suspension to the point of run-off on the test plants was the equivalent of a rate of 800 g/ha. Unless otherwise indicated, the rating values indicate a 200 ppm test suspension was used. (An asterisk “*” next to the rating value indicates a 40 ppm test suspension was used.) The test suspension was sprayed to the point of run-off on wheat seedlings. The following day the seedlings were inoculated with a spore suspension of Septoria tritici (the causal agent of wheat leaf blotch) and incubated in saturated atmosphere at 24° C. for 48 h. and then the seedlings were moved to a growth chamber at 20° C. for 19 additional days, after which time visual disease ratings were made. Results for Tests A-G are given in Table A. In the Table, a rating of 100 indicates 100% disease control and a rating of 0 indicates no disease control (relative to the controls). A hyphen (-) indicates no test results.

For the next assay, the system named is Botrytis cinerea. Put plainly: Test A: preventive spray on tomato seedlings, tomato Botrytis, visual disease rating. The following applies: 200 ppm test suspension, Botrytis cinerea inoculated the day after spraying; for pest or weed control at 200 ppm: 120 h. How it is done: General protocol for preparing test suspensions for Tests A-G: the test compounds were first dissolved in acetone in an amount equal to 3% of the final volume and then suspended at the desired concentration (in ppm) in acetone and purified water (50/50 mix by volume) containing 250 ppm of the surfactant Trem® 014 (polyhydric alcohol esters). The resulting test suspensions were then used in Tests A-G. Each test was conducted in triplicate, and the results were averaged. Spraying a 200 ppm test suspension to the point of run-off on the test plants was the equivalent of a rate of 800 g/ha. Unless otherwise indicated, the rating values indicate a 200 ppm test suspension was used. (An asterisk “*” next to the rating value indicates a 40 ppm test suspension was used.) The test suspension was sprayed to the point of run-off on tomato seedlings. The following day the seedlings were inoculated with a spore suspension of Botrytis cinerea (the causal agent of tomato Botrytis) and incubated in saturated atmosphere at 20° C. for 48 h, and then moved to a growth chamber at 24° C. for 3 additional days, after which time visual disease ratings were made. Results for Tests A-G are given in Table A. In the Table, a rating of 100 indicates 100% disease control and a rating of 0 indicates no disease control (relative to the controls). A hyphen (-) indicates no test results.

The subject of assay [2] is Blumeria graminis f. sp. tritici. Put plainly: Test G: preventive spray on wheat seedlings, wheat powdery mildew, visual disease rating.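 On all read-outs here: rated 8 days after spore dust inoculation at 20 °C.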 As to conditions: 200 ppm test suspension, Blumeria graminis f. sp. tritici inoculated the day after spraying; for pest or weed control at 200 ppm: 192 h. How it is done: General protocol for preparing test suspensions for Tests A-G: the test compounds were first dissolved in acetone in an amount equal to 3% of the final volume and then suspended at the desired concentration (in ppm) in acetone and purified water (50/50 mix by volume) containing 250 ppm of the surfactant Trem® 014 (polyhydric alcohol esters). The resulting test suspensions were then used in Tests A-G. Each test was conducted in triplicate, and the results were averaged. Spraying a 200 ppm test suspension to the point of run-off on the test plants was the equivalent of a rate of 800 g/ha. Unless otherwise indicated, the rating values indicate a 200 ppm test suspension was used. (An asterisk “*” next to the rating value indicates a 40 ppm test suspension was used.) The test suspension was sprayed to the point of run-off on wheat seedlings. The following day the seedlings were inoculated with a spore dust of Blumeria graminis f. sp. tritici (also known as Erysiphe graminis f. sp. tritici, the causal agent of wheat powdery mildew) and incubated in a growth chamber at 20° C. for 8 days, after which time visual disease ratings were made. Results for Tests A-G are given in Table A. In the Table, a rating of 100 indicates 100% disease control and a rating of 0 indicates no disease control (relative to the controls). A hyphen (-) indicates no test results.

As to `Cc1nn(C)c(OC(C)C)c1-c1ccc(F)cc1Cl` [Compound 31], the “Test F rating (disease control)” value in assay [1] was 22%. Further, the “Test C rating (disease control)” value in the assay with Septoria nodorum is 0%. In addition, in the assay on Septoria tritici, the “Test D rating (disease control)” value was 0%. Also, the “Test A rating (disease control)” value in the assay on Botrytis cinerea is reported as 0%. In addition, the “Test G rating (disease control)” value in assay [2] is on record as 0%.

Consider `Cc1nn(C)c(C(N)C(C)C)c1-c1c(F)cccc1Cl` (stereo not drawn) [Compound 32], for which the “Test F rating (disease control)” value in assay [1] is 96%. Also, the “Test C rating (disease control)” value with Septoria nodorum is given as 100%. The “Test D rating (disease control)” value with Septoria tritici worked out at 94%. In addition, the “Test A rating (disease control)” value with Botrytis cinerea amounted to 0%. The “Test G rating (disease control)” value in assay [2] is given as 0%.

Take `CCC(C)C(N)c1c(-c2c(F)cccc2Cl)c(C)nn1C` (stereo not drawn) [Compound 33, 4-(2-chloro-6-fluorophenyl)-1,3-dimethyl-α-(1-methylpropyl)-1H-pyrazole-5-methanamine]: the pest or weed control at 200 ppm in assay [1] turned out to be 80%; with Septoria nodorum, 98%; with Septoria tritici, 92%; in the assay on Botrytis cinerea, 90%; in assay [2] it was 56%.

With `CCCCNc1c(-c2ccc(F)cc2Br)c(C)nn1C` [Compound 36], in assay [1], the “Test F rating (disease control)” value was 100%. Moreover, the “Test C rating (disease control)” value in the assay on Septoria nodorum was 100%. In addition, in the assay on Septoria tritici, the “Test D rating (disease control)” value worked out at 50%. Moreover, the “Test A rating (disease control)” value with Botrytis cinerea is on record as 67%. Also, in assay [2], the “Test G rating (disease control)” value was found to be 0%.

Consider `CCCCN(CCCC)c1c(-c2ccc(F)cc2Br)c(C)nn1C` [Compound 37], for which the “Test F rating (disease control)” value in assay [1] stood at 99%. Also, the “Test C rating (disease control)” value in the assay with Septoria nodorum came to 99%. For the same compound, the “Test D rating (disease control)” value in the assay on Septoria tritici turned out to be 0%. Moreover, the “Test A rating (disease control)” value in the assay with Botrytis cinerea is reported as 0%. In addition, the “Test G rating (disease control)” value in assay [2] was 0%.

For the compound `Cc1nn(C)c(NC(C)C)c1-c1ccc(F)cc1Br` [Compound 38], in assay [1], the “Test F rating (disease control)” value is 100%. The “Test C rating (disease control)” value in the assay with Septoria nodorum is reported as 100%. For the same compound, the “Test D rating (disease control)” value in the assay with Septoria tritici stood at 46%. Moreover, the “Test A rating (disease control)” value with Botrytis cinerea came to 100%. The “Test G rating (disease control)” value in assay [2] is recorded as 0%.

Turning to `CCN(CC)c1c(-c2ccc(F)cc2Br)c(C)nn1C` [Compound 39], in assay [1], the “Test F rating (disease control)” value is given as 68%. Besides, the “Test C rating (disease control)” value in the assay on Septoria nodorum worked out at 64%. Also, the “Test D rating (disease control)” value in the assay on Septoria tritici was found to be 0%. The “Test A rating (disease control)” value in the assay on Botrytis cinerea came out at 0%. In assay [2], the “Test G rating (disease control)” value was found to be 0%.

Regarding `Cc1nn(C)c(N2CCOCC2)c1-c1ccc(F)cc1Cl` [Compound 40, 4-[4-(2-chloro-4-fluorophenyl)-1,3-dimethyl-1H-pyrazol-5-yl]morpholine], the pest or weed control at 200 ppm in assay [1] stood at 99%; with Septoria nodorum it was 0%; in the assay with Septoria tritici, 100%; in the assay on Botrytis cinerea it was 100%; in assay [2] it was 94%.

Take `Cc1nn(C)c(N2CCCCC2)c1-c1ccc(F)cc1Cl` [Compound 41]: the “Test F rating (disease control)” value in assay [1] was found to be 44%. In the assay with Septoria nodorum, the “Test C rating (disease control)” value came out at 0%. In addition, the “Test D rating (disease control)” value in the assay on Septoria tritici is 88%. Further, in the assay with Botrytis cinerea, the “Test A rating (disease control)” value was found to be 99%. Moreover, the “Test G rating (disease control)” value in assay [2] was 0%.

For the compound `Cc1nn(C)c(N2CCCCC2C)c1-c1ccc(F)cc1Cl` (stereo not drawn) [Compound 43], the “Test F rating (disease control)” value in assay [1] amounted to 19%. Besides, the “Test C rating (disease control)” value with Septoria nodorum amounted to 0%. Besides, the “Test D rating (disease control)” value in the assay on Septoria tritici worked out at 36%. Also, the “Test A rating (disease control)” value with Botrytis cinerea stood at 73%. In addition, the “Test G rating (disease control)” value in assay [2] was found to be 43%.

Take `Cc1nn(C)c(NCC(C)C)c1-c1ccc(F)cc1Br` [Compound 44]: the “Test F rating (disease control)” value in assay [1] is given as 90%. Further, the “Test C rating (disease control)” value with Septoria nodorum turned out to be 59%. Moreover, the “Test D rating (disease control)” value in the assay with Septoria tritici was 0%. Moreover, the “Test A rating (disease control)” value with Botrytis cinerea turned out to be 0%. For the same compound, the “Test G rating (disease control)” value in assay [2] worked out at 0%.

Regarding `COCCNc1c(-c2ccc(F)cc2Br)c(C)nn1C` [Compound 45], the “Test F rating (disease control)” value in assay [1] is 68%. Moreover, the “Test C rating (disease control)” value in the assay with Septoria nodorum is recorded as 77%. In the assay on Septoria tritici, the “Test D rating (disease control)” value was found to be 0%. The “Test A rating (disease control)” value with Botrytis cinerea came out at 9%. Moreover, in assay [2], the “Test G rating (disease control)” value is given as 0%.

For the compound `COCCN(CCOC)c1c(-c2ccc(F)cc2Br)c(C)nn1C` [Compound 46], in assay [1], the “Test F rating (disease control)” value stood at 68%. Further, the “Test C rating (disease control)” value with Septoria nodorum was 86%. Besides, the “Test D rating (disease control)” value in the assay on Septoria tritici came out at 0%. In the assay on Botrytis cinerea, the “Test A rating (disease control)” value is given as 0%. The “Test G rating (disease control)” value in assay [2] is recorded as 13%.

In the case of `CCCCNc1c(-c2c(F)cc(F)cc2F)c(C)nn1C` [Compound 47], the “Test F rating (disease control)” value in assay [1] was 98%. In the assay with Septoria nodorum, the “Test C rating (disease control)” value is 95%. In addition, the “Test D rating (disease control)” value in the assay with Septoria tritici came to 57%. In addition, the “Test A rating (disease control)” value in the assay on Botrytis cinerea is reported as 30%. Also, the “Test G rating (disease control)” value in assay [2] worked out at 0%.

`Cc1nn(C)c(NCC2CC2)c1-c1ccc(F)cc1Br` [Compound 48]: the “Test F rating (disease control)” value in assay [1] was determined as 89%. Moreover, in the assay with Septoria nodorum, the “Test C rating (disease control)” value is recorded as 68%. Further, in the assay on Septoria tritici, the “Test D rating (disease control)” value was found to be 71%. Moreover, the “Test A rating (disease control)” value in the assay on Botrytis cinerea was found to be 98%. The “Test G rating (disease control)” value in assay [2] is recorded as 0%.
